From US20210137948A1, “TREATMENT OF INFECTIONS CAUSED BY NEISSERIA GONOCOCCUS USING A HALOGENATED SALICYLANILIDE” (priority 2018, published 2021)
Where two headings read alike, the source gives them in different places.

What was measured:
[1] = test system: Neisseria gonorrhoeae CDC panel consisting of 48 isolates; assay: Agar dilution MIC, CDC panel of 48 isolates (Example 2); type: cell-based; conditions: for MIC: Neisseria gonorrhoeae, read-out: Minimal inhibitory concentration; for in vitro activity (in words): against N. gonococcus (N. gonorrhoeae), Example 2 conclusion
Protocol: Neisseria gonorrhoeae (Neisseria gonocossus) were tested for antimicrobial susceptibility using agar dilution as described by the Clinical and Laboratory Standards Institute (CLSI), see reference (4).
The concentrations tested for each compound encompass the reported interpretive breakpoints and consist of 8 or more doubling dilutions, ensuring that there is one dilution below the lowest value of QC.
GC agar base +1% defined growth supplement.
Initial screening strains: Neisseria gonorrhoeae CDC panel consisting of 48 isolates. The strains were provided by Clinical and Environmental Microbiology Branch, Division of Healthcare Quality Promotion, CDC (Atlanta, US).
Dilution scheme for reference method: Prepare intermediate 100× antimicrobial agent solutions by making successive serial twofold dilutions. Then, add one part of the 100× antimicrobial solution to […] of molten agar. Plates containing no antimicrobial agent solutions are made for use as growth controls. It is important that no longer than one hour elapses between the time that the stock solution is thawed, the dilutions are prepared and added to the base medium and the plates are poured, see reference (5).
• Add appropriate dilutions of antimicrobial solution to molten test agars that have been allowed to equilibrate in a water bath to 50° C. • Mix the agar and antimicrobial solution thoroughly and pour (20 mL) into Petri dishes on a level surface. Pour quickly after mixing to prevent cooling and partial solidification in the mixing container. Avoid generating bubbles when mixing. • Allow the agar to solidify at room temperature and store them in sealed plastic bags at 2 to 8° C. for up to five days. Preferably use with 24 hours. • Allow plates stored at 2 to 8° C. to equilibrate to room temperature before use. Make certain that the agar surface is dry before inoculating the plates. If necessary, place the plates in an incubator or laminar flow hood for approximately 30 minutes with their lids ajar to hasten drying of the agar surface.
Inoculum preparation: Prepare a standardized inoculum for the agar dilution method by suspending isolated colonies of Neisseria gonorrhoeae selected from an 18-24 hour-old chocolate agar plate directly in Mueller Hinton Broth (MHB) to achieve the density equivalent to a 0.5 McFarland standard and adjusted to obtain a cell density of ˜1-2×10^8 CFU/mL. For N. gonorrhoeae, the McFarland solutions are made at a reading of ˜0.80 in densitometer (Grant Instruments DEN-1B Densitometer) because these values have been evaluated and correspond to the desired CFU/mL count.
Dilution of inoculum suspension: Cultures adjusted to the 0.5 McFarland standard contain approximately 1 to 2×10^8 CFU/mL with most species, and the final inoculum required is 10^4 CFU per spot. When using replicators with 3-mm pins that deliver ˜2.5 μL, dilute the 0.5 McFarland suspension 1:10 in sterile MHB to obtain a concentration of 10^7 CFU/mL. The final inoculum on the agar will be approximately 10^4 CFU per spot. Use the adjusted suspensions for final inoculation within 60 minutes of preparation, see reference (5).
The following procedure was followed: • Arrange the tubes containing the adjusted and diluted bacterial suspensions (10^7 CFU/mL) in order in a rack. Place an aliquot of each well-mixed suspension into the corresponding well in the replicator inoculum block (if being used). • Mark the agar plates for orientation of the inoculum spots. • Apply an aliquot of each inoculum (2.5 μL) to the agar surface, either with an inocula-replicating device or pipette, to obtain a final concentration of ˜10^4 CFU/spot. • Inoculate a growth-control plate (no antimicrobial agent) first and then, starting with the lowest concentration, inoculate the plates containing the different antimicrobial concentrations. […]

rabbits = conditions: p.o.; cited from earlier work
mice = conditions: p.o.; cited from earlier work
rats = conditions: cited from earlier work
[2] = Neisseria gonorrhoeae strain CDC # 165
[3] = Neisseria gonorrhoeae strain CDC # 166
[4] = Neisseria gonorrhoeae strain CDC # 167
[5] = Neisseria gonorrhoeae strain CDC # 169
[6] = Neisseria gonorrhoeae strain CDC # 170
[7] = Neisseria gonorrhoeae strain CDC # 171
[8] = Neisseria gonorrhoeae strain CDC # 172
[9] = Neisseria gonorrhoeae strain CDC # 173
[10] = Neisseria gonorrhoeae strain CDC # 174
[11] = Neisseria gonorrhoeae strain CDC # 175
[12] = Neisseria gonorrhoeae strain CDC # 176
[13] = Neisseria gonorrhoeae strain CDC # 177
[14] = Neisseria gonorrhoeae strain CDC # 178
[15] = Neisseria gonorrhoeae strain CDC # 179
[16] = Neisseria gonorrhoeae strain CDC # 180
[17] = Neisseria gonorrhoeae strain CDC # 181
[18] = Neisseria gonorrhoeae strain CDC # 182
[19] = Neisseria gonorrhoeae strain CDC # 183
[20] = Neisseria gonorrhoeae strain CDC # 184
[21] = Neisseria gonorrhoeae strain CDC # 185
[22] = Neisseria gonorrhoeae strain CDC # 186
[23] = Neisseria gonorrhoeae strain CDC # 187
[24] = Neisseria gonorrhoeae strain CDC # 188
[25] = Neisseria gonorrhoeae strain CDC # 189
[26] = Neisseria gonorrhoeae strain CDC # 190
[27] = Neisseria gonorrhoeae strain CDC # 191
[28] = Neisseria gonorrhoeae strain CDC # 192
[29] = Neisseria gonorrhoeae strain CDC # 193
[30] = Neisseria gonorrhoeae strain CDC # 194
[31] = Neisseria gonorrhoeae strain CDC # 195
[32] = Neisseria gonorrhoeae strain CDC # 196
[33] = Neisseria gonorrhoeae strain CDC # 198
[34] = Neisseria gonorrhoeae strain CDC # 199
[35] = Neisseria gonorrhoeae strain CDC # 200
[36] = Neisseria gonorrhoeae strain CDC # 201
[37] = Neisseria gonorrhoeae strain CDC # 202
[38] = Neisseria gonorrhoeae strain CDC # 203
[39] = Neisseria gonorrhoeae strain CDC # 204
[40] = Neisseria gonorrhoeae strain CDC # 205
[41] = Neisseria gonorrhoeae strain CDC # 206
[42] = Neisseria gonorrhoeae strain CDC # 207
[43] = Neisseria gonorrhoeae strain CDC # 208
[44] = Neisseria gonorrhoeae strain CDC # 209
[45] = Neisseria gonorrhoeae strain CDC # 210
[46] = Neisseria gonorrhoeae strain CDC # 211
[47] = Neisseria gonorrhoeae strain CDC # 212
[48] = Neisseria gonorrhoeae strain CDC # 213
[49] = Neisseria gonorrhoeae strain CDC # 214

O=C(Nc1ccc([N+](=O)[O-])cc1Cl)c1cc(Cl)ccc1O [Niclosamide, 2′,5-dichloro-4′-nitrosalicylanilide]
MIC [1, 2]: ≤ 0.25 µg/mL | MIC [1, 3]: ≤ 0.25 µg/mL | MIC [1, 4]: ≤ 0.25 µg/mL | MIC [1, 5]: ≤ 0.25 µg/mL | MIC [1, 6]: ≤ 0.25 µg/mL | MIC [1, 7]: ≤ 0.25 µg/mL | MIC [1, 8]: ≤ 0.25 µg/mL | MIC [1, 9]: ≤ 0.25 µg/mL | MIC [1, 10]: ≤ 0.25 µg/mL | MIC [1, 11]: ≤ 0.25 µg/mL | MIC [1, 12]: ≤ 0.25 µg/mL | MIC [1, 13]: ≤ 0.25 µg/mL | MIC [1, 14]: ≤ 0.25 µg/mL | MIC [1, 15]: ≤ 0.25 µg/mL | MIC [1, 16]: ≤ 0.25 µg/mL | MIC [1, 17]: ≤ 0.25 µg/mL | MIC [1, 18]: ≤ 0.25 µg/mL | MIC [1, 19]: ≤ 0.25 µg/mL | MIC [1, 20]: ≤ 0.25 µg/mL | MIC [1, 21]: ≤ 0.25 µg/mL | MIC [1, 22]: ≤ 0.25 µg/mL | MIC [1, 23]: ≤ 0.25 µg/mL | MIC [1, 24]: ≤ 0.25 µg/mL | MIC [1, 25]: ≤ 0.25 µg/mL | MIC [1, 26]: ≤ 0.25 µg/mL | MIC [1, 27]: ≤ 0.25 µg/mL | MIC [1, 28]: ≤ 0.25 µg/mL | MIC [1, 29]: ≤ 0.25 µg/mL | MIC [1, 30]: ≤ 0.25 µg/mL | MIC [1, 31]: ≤ 0.25 µg/mL | MIC [1, 32]: ≤ 0.25 µg/mL | MIC [1, 33]: ≤ 0.25 µg/mL | MIC [1, 34]: ≤ 0.25 µg/mL | MIC [1, 35]: ≤ 0.25 µg/mL | MIC [1, 36]: ≤ 0.25 µg/mL | MIC [1, 37]: ≤ 0.25 µg/mL | MIC [1, 38]: ≤ 0.25 µg/mL | MIC [1, 39]: ≤ 0.25 µg/mL | MIC [1, 40]: ≤ 0.25 µg/mL | MIC [1, 41]: ≤ 0.25 µg/mL | MIC [1, 42]: ≤ 0.25 µg/mL | MIC [1, 43]: ≤ 0.25 µg/mL | MIC [1, 44]: ≤ 0.25 µg/mL | MIC [1, 45]: ≤ 0.25 µg/mL | MIC [1, 46]: ≤ 0.25 µg/mL | MIC [1, 47]: ≤ 0.25 µg/mL | MIC [1, 48]: ≤ 0.25 µg/mL | MIC [1, 49]: ≤ 0.25 µg/mL | in vitro activity (in words) [1]: Good in vitro activity | LD50 (rabbits): 5000 mg/kg | LD50 (mice): > 5000 mg/kg | LD50 (rats; dermal): 2000 mg/kg | LD50 (rats; p.o.): 5000 mg/kg

O=C(Nc1cc(Cl)cc(Cl)c1O)c1c(O)c(Cl)cc(Cl)c1Cl [Oxyclosanide, oxyclozanide]
MIC [1, 2]: ≤ 0.25 µg/mL | MIC [1, 3]: ≤ 0.25 µg/mL | MIC [1, 4]: ≤ 0.25 µg/mL | MIC [1, 5]: ≤ 0.25 µg/mL | MIC [1, 6]: ≤ 0.25 µg/mL | MIC [1, 7]: ≤ 0.25 µg/mL | MIC [1, 8]: ≤ 0.25 µg/mL | MIC [1, 9]: ≤ 0.25 µg/mL | MIC [1, 10]: ≤ 0.25 µg/mL | MIC [1, 11]: ≤ 0.25 µg/mL | MIC [1, 12]: ≤ 0.25 µg/mL | MIC [1, 13]: ≤ 0.25 µg/mL | MIC [1, 14]: ≤ 0.25 µg/mL | MIC [1, 15]: ≤ 0.25 µg/mL | MIC [1, 16]: ≤ 0.25 µg/mL | MIC [1, 17]: ≤ 0.25 µg/mL | MIC [1, 18]: ≤ 0.25 µg/mL | MIC [1, 19]: ≤ 0.25 µg/mL | MIC [1, 20]: ≤ 0.25 µg/mL | MIC [1, 21]: ≤ 0.25 µg/mL | MIC [1, 22]: ≤ 0.25 µg/mL | MIC [1, 23]: ≤ 0.25 µg/mL | MIC [1, 24]: ≤ 0.25 µg/mL | MIC [1, 25]: ≤ 0.25 µg/mL | MIC [1, 26]: ≤ 0.25 µg/mL | MIC [1, 27]: ≤ 0.25 µg/mL | MIC [1, 28]: ≤ 0.25 µg/mL | MIC [1, 29]: ≤ 0.25 µg/mL | MIC [1, 30]: ≤ 0.25 µg/mL | MIC [1, 31]: ≤ 0.25 µg/mL | MIC [1, 32]: ≤ 0.25 µg/mL | MIC [1, 33]: ≤ 0.25 µg/mL | MIC [1, 34]: ≤ 0.25 µg/mL | MIC [1, 35]: ≤ 0.25 µg/mL | MIC [1, 36]: ≤ 0.25 µg/mL | MIC [1, 37]: ≤ 0.25 µg/mL | MIC [1, 38]: ≤ 0.25 µg/mL | MIC [1, 39]: ≤ 0.25 µg/mL | MIC [1, 40]: ≤ 0.25 µg/mL | MIC [1, 41]: ≤ 0.25 µg/mL | MIC [1, 42]: ≤ 0.25 µg/mL | MIC [1, 43]: ≤ 0.25 µg/mL | MIC [1, 44]: ≤ 0.25 µg/mL | MIC [1, 45]: ≤ 0.25 µg/mL | MIC [1, 46]: ≤ 0.25 µg/mL | MIC [1, 47]: ≤ 0.25 µg/mL | MIC [1, 48]: ≤ 0.25 µg/mL | MIC [1, 49]: ≤ 0.25 µg/mL | in vitro activity (in words) [1]: Good in vitro activity | LD50 (rabbits): 3200 mg/kg | LD50 (mice): 300 mg/kg | LD50, median (rats; p.o., median of the studies): 2250 mg/kg | LD50 (rats; p.o.): 980 to 3519 mg/kg
